Values quoted from earlier work, collected in PubChem BioAssay AID1259409 (Chemical Carcinogenesis Research Information System (CCRIS), 2018).

System: rodent chemically induced tumor inhibition, incidence and multiplicity
Experiment: CCRIS tumor inhibitor studies

Cc1c(C)c2c(c(C)c1O)CC[C@@](C)(CCC[C@H](C)CCC[C@H](C)CCCC(C)C)O2
tumour outcome (control, treated, inhibition, significance) (Carcinogen: 7,12-DIMETHYLBENZ[A]ANTHRACENE, 57-97-6, Dose [Inhibitor]: 0.2% IN HIGH SATURATED FAT DIET DAILY STARTING 29 D BEFORE CARCINOGEN TREATMENT AND CONTINUING FOR DURATION OF STUDY (ST, Route [Inhibitor]: ORAL, Species: RAT, Strain/Sex: SPRAGUE-DAWLEY/FEMALE, Target Tissue: Type of Lesion: MAMMARY GLAND: ADENOCARCINOMA, Dose [Carcinogen]: 10 MG IN 1 ML STRIPPED CORN OIL ONCE AT 50 D OF AGE, Promoter: NONE USED): 65%, 65%, 0%, not calculated
tumour outcome (control, treated, inhibition, significance) (Carcinogen: 7,12-DIMETHYLBENZ[A]ANTHRACENE, 57-97-6, Dose [Inhibitor]: 0.2% IN LOW FAT DIET DAILY STARTING 29 D BEFORE CARCINOGEN TREATMENT AND CONTINUING FOR DURATION OF STUDY (STUDY DURATIO, Route [Inhibitor]: ORAL, Species: RAT, Strain/Sex: SPRAGUE-DAWLEY/FEMALE, Target Tissue: Type of Lesion: MAMMARY GLAND: ADENOCARCINOMA, Dose [Carcinogen]: 10 MG IN 1 ML STRIPPED CORN OIL ONCE AT 50 D OF AGE, Promoter: NONE USED): 35%, 35%, 0%, not calculated
tumour outcome (control, treated, inhibition, significance) (Carcinogen: 7,12-DIMETHYLBENZ[A]ANTHRACENE, 57-97-6, Dose [Inhibitor]: 0.2% IN LOW FAT DIET THROUGHOUT THE EXPERIMENT, (STUDY DURATION: 32 WK), Route [Inhibitor]: ORAL, Species: RAT, Strain/Sex: SPRAGUE-DAWLEY/FEMALE, Target Tissue: Type of Lesion: MAMMARY GLAND: PARENCHYMAL CELL CARCINOMA, Dose [Carcinogen]: 10 MG IN 1 ML CORN OIL AT 50 D OF AGE ONCE, Promoter: NONE USED): 37%, 32%, 14%, not calculated
tumour outcome (control, treated, inhibition, significance) (Carcinogen: 7,12-DIMETHYLBENZ[A]ANTHRACENE, 57-97-6, Dose [Inhibitor]: 0.2% IN SATURATED FAT DIET THROUGHOUT THE EXPERIMENT, (STUDY DURATION: 32 WK), Route [Inhibitor]: ORAL, Species: RAT, Strain/Sex: SPRAGUE-DAWLEY/FEMALE, Target Tissue: Type of Lesion: MAMMARY GLAND: PARENCHYMAL CELL CARCINOMA, Dose [Carcinogen]: 10 MG IN 1 ML CORN OIL AT 50 D OF AGE ONCE, Promoter: NONE USED): 67%, 65%, 3%, not calculated
tumour outcome (control, treated, inhibition, significance) (Carcinogen: 7,12-DIMETHYLBENZ[A]ANTHRACENE, 57-97-6, Dose [Inhibitor]: 43 UG IN 80 µL ACETONE ONCE APPLIED ON BACK 5 MIN PRIOR TO CARCINOGEN DOSE (STUDY DURATION: 4 MO), Route [Inhibitor]: DERMAL, Species: MOUSE, Strain/Sex: ICR/FEMALE, Target Tissue: Type of Lesion: SKIN: TUMOR, Dose [Carcinogen]: 25 UG IN 80 µL ACETONE APPLIED ON BACK, Promoter: CROTON OIL, 8001-28-3): 29/30 (97%), 27/30 (90%), 7%, not significant
tumour outcome (control, treated, inhibition, significance) (Carcinogen: 7,12-DIMETHYLBENZ[A]ANTHRACENE;57-97-6, Dose [Inhibitor]: 200 MG IN 1 ML OLIVE OIL ONCE 1 HR PRIOR TO CARCINOGEN DOSE(STUDY DURATION: 18 WK), Route [Inhibitor]: GAVAGE, Species: RAT, Strain/Sex: SPRAGUE-DAWLEY/FEMALE, Target Tissue: Type of Lesion: MAMMARY GLAND: TUMOR, Dose [Carcinogen]: 12 MG IN 1 ML OLIVE OIL ADMINISTERED 1 HR AFTER INHIBITOR, Promoter: NONE USED): 27/34 (80%), 10/18 (56%), 30%, not significant
tumour outcome (control, treated, inhibition, significance) (Carcinogen: 7,12-DIMETHYLBENZ[A]ANTHRACENE, 57-97-6, Dose [Inhibitor]: 1000 UG APPLIED ONCE 5 MIN PRIOR TO CARCINOGEN DOSE (STUDY DURATION: 28 WK), Route [Inhibitor]: DERMAL, Species: MOUSE, Strain/Sex: CD-1/FEMALE, Target Tissue: Type of Lesion: SKIN: PAPILLOMA, Dose [Carcinogen]: 2.56 UG APPLIED ONCE 5 MIN AFTER INHIBITOR, Promoter: 12-O-TETRADECANOYLPHORBOL-13-ACETATE, 16561-29-8): 82%, 68%, 17%, not calculated
tumour outcome (control, treated, inhibition, significance) (Carcinogen: METHYL(ACETOXYMETHYL)NITROSAMINE, 56856-83-8, Dose [Inhibitor]: 0, 5.8 NMOL IN DRINKING WATER BEGINNING 2 WK PRIOR TO CARCINOGEN AND CONTINUED FOR STUDY DURATION, (STUDY DURATION: 13 M, Dose [Inhibitor]: 0, 5.8 NMOL IN DRINKING WATER BEGINNING 2 WK PRIOR TO CARCINOGEN AND CONTINUED FOR STUDY DURATION, (STUDY DURATION: 13 M, Route [Inhibitor]: ORAL, Species: HAMSTER, Strain/Sex: SYRIAN/FEMALE, Target Tissue: Type of Lesion: ORAL CAVITY: TUMOR, Dose [Carcinogen]: 2 MG/KG BW IN DISTILLED WATER TO RIGHT CHEEK POUCH 2/MO FOR 6 MO (TOTAL DOSE 24 MG/KG), Promoter: NONE USED): 14/15 (93%), 1/15 (7%), 92%, p<0.001
tumour outcome (control, treated, inhibition, significance) (Carcinogen: N-BIS(2-HYDROXYPROPYL)NITROSAMINE, 53609-64-6, Dose [Inhibitor]: 0, 1% IN DIET FOR 30 WK BEGINNING POST CARCINOGEN TREATMENT (STUDY DURATION: 32 WK), Route [Inhibitor]: ORAL, Species: RAT, Strain/Sex: F344/MALE, Target Tissue: Type of Lesion: BLADDER: ADENOMA, Dose [Carcinogen]: 0.1% IN DRINKING WATER FOR 2 WK, Promoter: NONE USED): 5%, 15%, -200%, not calculated
tumour outcome (control, treated, inhibition, significance) (Carcinogen: N-BIS(2-HYDROXYPROPYL)NITROSAMINE, 53609-64-6, Dose [Inhibitor]: 0, 1% IN DIET FOR 30 WK BEGINNING POST CARCINOGEN TREATMENT (STUDY DURATION: 32 WK), Route [Inhibitor]: ORAL, Species: RAT, Strain/Sex: F344/MALE, Target Tissue: Type of Lesion: KIDNEY: TUMOR, Dose [Carcinogen]: 0.1% IN DRINKING WATER FOR 2 WK, Promoter: NONE USED): 10%, 20%, -100%, not calculated
